Measured values as given in ChEMBL document CHEMBL4257554, “On the inhibition of capsaicin response in dorsal root ganglion neurons by nobilamide B and analogues: a structure-activity relationship study” (Medchemcomm, 2018).
Non-standard residues stand in square brackets, D forms with d. Residues, ends and D or L forms follow the SMILES beside them. *: point of attachment. d(aThr) = C[C@@H](O)[C@@H](N)C(=O)O; Dhb = C/C=C(\N)C(=O)O; Propionyl = CCC(=O)*

target: Transient receptor potential cation channel subfamily V member 1 (Mus musculus) (UniProt Q704Y3); experiment: Antagonist activity at TRPV1 channel in mouse DRG neurons assessed as inhibition of capsaicin-induced calcium accumulation at 300 uM incubated for 6 mins by Fura-2-AM dye based fluorescence assay relative to control
Sequence (Q704Y3 whole entry): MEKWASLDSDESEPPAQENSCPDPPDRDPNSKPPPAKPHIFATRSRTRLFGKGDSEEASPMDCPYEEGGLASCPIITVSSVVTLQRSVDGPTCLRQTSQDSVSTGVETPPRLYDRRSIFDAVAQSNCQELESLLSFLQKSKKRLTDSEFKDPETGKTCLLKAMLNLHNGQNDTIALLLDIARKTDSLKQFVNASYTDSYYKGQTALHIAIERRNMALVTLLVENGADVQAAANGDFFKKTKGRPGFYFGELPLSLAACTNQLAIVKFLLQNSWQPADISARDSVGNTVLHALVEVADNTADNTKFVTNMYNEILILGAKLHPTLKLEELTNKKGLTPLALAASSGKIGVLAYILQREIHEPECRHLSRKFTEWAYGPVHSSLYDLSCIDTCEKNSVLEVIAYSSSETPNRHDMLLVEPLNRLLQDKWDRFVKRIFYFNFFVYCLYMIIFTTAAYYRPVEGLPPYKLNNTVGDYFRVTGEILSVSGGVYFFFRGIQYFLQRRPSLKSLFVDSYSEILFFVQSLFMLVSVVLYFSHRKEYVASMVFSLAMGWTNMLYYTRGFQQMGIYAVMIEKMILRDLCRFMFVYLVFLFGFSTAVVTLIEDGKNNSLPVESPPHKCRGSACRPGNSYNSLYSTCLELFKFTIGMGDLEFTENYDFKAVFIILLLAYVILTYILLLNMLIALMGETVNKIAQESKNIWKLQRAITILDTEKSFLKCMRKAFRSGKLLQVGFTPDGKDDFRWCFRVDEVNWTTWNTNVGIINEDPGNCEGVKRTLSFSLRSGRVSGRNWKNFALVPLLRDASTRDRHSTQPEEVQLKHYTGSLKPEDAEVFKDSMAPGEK

Compound	inhibition [%]
C/C=C(\NC(=O)[C@H](C)NC(=O)[C@@H](NC(=O)[C@H](NC(=O)[C@H](Cc1ccccc1)NC(=O)[C@@H](CC(C)C)NC(=O)[C@H](C)NC(=O)CC)[C@@H](C)O)C(C)C)C(=O)O	6.47
C/C=C(\NC(=O)[C@H](C)NC(=O)[C@@H](NC(=O)[C@H](NC(=O)[C@H](Cc1ccccc1)NC(=O)[C@@H](CC(C)C)NC(=O)[C@@H](Cc1ccccc1)NC(=O)CC)[C@@H](C)O)C(C)C)C(=O)O (Propionyl-[dF][dL]F[d(aThr)]VA[Dhb]-OH)	33.6
C/C=C(\NC(=O)[C@H](C)NC(=O)[C@@H](NC(=O)[C@H](NC(=O)[C@H](C)NC(=O)[C@@H](CC(C)C)NC(=O)[C@@H](Cc1ccccc1)NC(=O)CC)[C@@H](C)O)C(C)C)C(=O)O	23.5
CCC(=O)N[C@H](Cc1ccccc1)C(=O)N[C@H](CC(C)C)C(=O)N[C@@H](Cc1ccccc1)C(=O)N[C@@H](C(=O)N[C@H](C(=O)N[C@@H](C)C(=O)N[C@@H](C)C(=O)O)C(C)C)[C@@H](C)O	35.6
C/C=C(\NC(=O)[C@H](C)NC(=O)[C@@H](NC(=O)[C@H](NC(=O)[C@H](Cc1ccccc1)NC(=O)[C@H](C)NC(=O)[C@@H](Cc1ccccc1)NC(=O)CC)[C@@H](C)O)C(C)C)C(=O)O	3.27
C/C=C(\NC(=O)[C@H](C)NC(=O)[C@H](C)NC(=O)[C@H](NC(=O)[C@H](Cc1ccccc1)NC(=O)[C@@H](CC(C)C)NC(=O)[C@@H](Cc1ccccc1)NC(=O)CC)[C@@H](C)O)C(=O)O	27.8
C/C=C(\NC(=O)[C@H](C)NC(=O)[C@@H](NC(=O)[C@H](C)NC(=O)[C@H](Cc1ccccc1)NC(=O)[C@@H](CC(C)C)NC(=O)[C@@H](Cc1ccccc1)NC(=O)CC)C(C)C)C(=O)O	5.38
